According to ChEMBL document CHEMBL5500375, “Design, synthesis, and evaluation of N1,N3-dialkyldioxonaphthoimidazoliums as antibacterial agents against methicillin-resistant Staphylococcus aureus” (Eur J Med Chem, 2024):
Calls of active or inactive are those of the source. No cut-off for these calls is given here.

Tests used:
[1] = system: Staphylococcus aureus; assay: Anti-biofilim activity against methicillin-resistant Staphylococcus aureus SA3 assessed decrease in biofilm growth at 1 to 10 times of MIC concentration measured after 12 to 24 hrs incubation; type: functional, organism-based; details: time 12-24 hrs
[2] = system: Staphylococcus aureus; assay: Antibacterial agents against c5-resistant mutant of methicillin-resistant Staphylococcus aureus SA3 m5 assessed as absence of growth at 0.19 ug/ml measured after overnight incubation under anaerobic condition in presence of N-acetylcysteine by micro-dilution method; type: functional, organism-based; details: dose 0.19 µg/ml
[3] = system: Pseudomonas aeruginosa; assay: Antibacterial agents against gram negative Pseudomonas aeruginosa PA14 assessed as reduction in colony forming unit at 0.78 ug/ml in presence of 0.1 to 0.2 ug/ml Polymyxin B by LB agar medium method; type: functional, organism-based; details: dose 0.78 µg/ml, time 0-10 hrs, TDE = time-dependent effect
[4] = system: Staphylococcus aureus; assay: Antibacterial agents against methicillin-resistant Staphylococcus aureus USA300 assessed as absence of growth at 0.19 ug/ml measured after overnight incubation under anaerobic condition in presence of N-acetylcysteine by micro-dilution method; type: functional, organism-based; details: dose 0.19 µg/ml
[5] = Metabolic stability in human liver microsomes assessed as half life at 2 uM preincubated for 5 mins followed by NADPH addition and measured for 35 mins by LC/MS analysis; type: ADME, Microsome; details: preincubation 5 min
[6] = system: Staphylococcus aureus; assay: Antibacterial activity against c5-resistant mutant of methicillin-resistant Staphylococcus aureus SA3 m6 assessed as resistance by measuring antibacterial activity after 20 passages at 200 ug/ml by emergence of bacterial resistance assay; type: functional, organism-based; details: dose 200.0 µg/ml
[7] = system: Staphylococcus aureus; assay: Antibacterial agents against methicillin-sensitive Staphylococcus aureus Newman assessed as absence of growth at 0.19 ug/ml measured after overnight incubation under anaerobic condition in presence of N-acetylcysteine by micro-dilution method; type: functional, organism-based; details: dose 0.19 µg/ml
[8] = system: Pseudomonas aeruginosa; assay: Antibacterial agents against gram negative Pseudomonas aeruginosa PA14 assessed as reduction in colony forming unit at 0.78 ug/ml measured upto 10 hrs by LB agar medium method; type: functional, organism-based; details: dose 0.78 µg/ml
[9] = system: Staphylococcus aureus; assay: Antibacterial agents against c5-resistant mutant of methicillin-resistant Staphylococcus aureus SA3 m4 assessed as absence of growth measured after 18 hrs by micro-dilution method; type: functional
[10] = system: Staphylococcus aureus; assay: Induction of ROS generation in methicillin-resistant Staphylococcus aureus USA300 using hydroxyphenyl fluorescein at 0.09 ug/ml under anaerobic condition; type: functional, organism-based; details: dose 0.09 µg/ml, TDE = time-dependent effect
[11] = system: Staphylococcus aureus; assay: Antibacterial agents against methicillin-sensitive Staphylococcus aureus Newman assessed as absence of growth measured after 18 hrs by micro-dilution method; type: functional
[12] = system: Staphylococcus aureus; assay: Antibacterial agents against c5-resistant mutant of methicillin-resistant Staphylococcus aureus SA3 m1 assessed as absence of growth at 0.19 ug/ml measured after overnight incubation under anaerobic condition in presence of N-acetylcysteine by micro-dilution method; type: functional, organism-based; details: dose 0.19 µg/ml
[13] = system: Staphylococcus aureus; assay: Antibacterial activity against methicillin-resistant Staphylococcus aureus SA3 assessed as resistance by measuring antibacterial activity after 11 to 20 passages at 0.39 ug/ml by emergence of bacterial resistance assay; type: functional, organism-based; details: dose 0.39 µg/ml
[14] = Cytotoxicity against human HEK293 cells assessed as cell survival measured after 72 hrs incubation by Cell Titer-Glo luminescent assay; type: toxicity, cell-based
[15] = system: Pseudomonas aeruginosa; assay: Antibacterial agents against gram negative Pseudomonas aeruginosa PA14 assessed as reduction in colony forming unit at 0.78 ug/ml measured upto 10 hrs in presence of 0.05 ug/ml Polymyxin B by LB agar medium method; type: functional, organism-based; details: dose 0.78 µg/ml
[16] = system: Staphylococcus aureus; assay: Antibacterial agents against c5-resistant mutant of methicillin-resistant Staphylococcus aureus SA3 m4 assessed as absence of growth at 0.19 ug/ml measured after overnight incubation under anaerobic condition in presence of N-acetylcysteine by micro-dilution method; type: functional, organism-based; details: dose 0.19 µg/ml
[17] = system: Staphylococcus aureus; assay: In vivo antibacterial activity against methicillin-resistant Staphylococcus aureus SA3 infected in dorsal thorax of Drosophila melanogaster strain Oregon R assessed as survival time of Drosophila at 0.2 mg/ml measured upto 72 hrs; type: functional
[18] = system: Bacillus subtilis; assay: Antibacterial agents against Bacillus subtilis PS380 assessed as absence of growth at 0.19 ug/ml measured after overnight incubation under anaerobic condition in presence of N-acetylcysteine by micro-dilution method; type: functional, organism-based; details: dose 0.19 µg/ml
[19] = system: Staphylococcus aureus; assay: Antibacterial agents against c5-resistant mutant of methicillin-resistant Staphylococcus aureus SA3 m2 assessed as absence of growth at 0.19 ug/ml measured after overnight incubation under anaerobic condition in presence of N-acetylcysteine by micro-dilution method; type: functional, organism-based; details: dose 0.19 µg/ml
[20] = system: Pseudomonas aeruginosa; assay: Antibacterial agents against gram negative Pseudomonas aeruginosa PA14 assessed as reduction in colony forming unit at 0.78 ug/ml measured upto 10 hrs in presence of 0.2 ug/ml Polymyxin B by LB agar medium method; type: functional; details: dose 0.78 µg/ml

SMILES: CCCCCCCCn1c2c([n+](Cc3ccccc3)c1C)C(=O)c1ccccc1C2=O.[Br-]
- Activity [1]: Active
- Activity [2]: inactive
- Activity [3]: Tde
- Activity [4]: inactive
- half-life at 2 µM [5]: 32 min
- Activity [6]: inactive
- Activity [7]: inactive
- Activity [8]: inactive
- MIC [9]: 6.25 µg/mL
- Activity [10]: Tde
- MIC [11]: 0.19 µg/mL
- Activity [12]: inactive
- Activity [13]: inactive
- IC50 at 72 h [14]: 293 nM
- Activity [15]: inactive
- Activity [16]: inactive
- Time [17]: 62 h
- Activity [18]: Active
- Activity [19]: inactive
- Activity [20]: >4 log10CFU/ml
